Key:
HIF-2a = HIF-2a protein stability (cycloheximide, 35S-methionine pulse chase); type: cell-based, human; conditions: 786-O cells; for HIF-2a protein stability after cycloheximide: 10 μg/mL cycloheximide
Protocol: Cells were treated with medium only, DMSO, or compound as described for western blots. Following the second day of compound incubation, 10 μg/mL cycloheximide (CHx) was added to halt de novo protein synthesis and time points were taken. Protein quantification and Western blots were performed as described.
Cells were treated with medium only, DMSO, or compound as described for western blots. Following the second day of treatment, cells were washed twice in PBS and then placed into medium only, DMSO, or labeling medium (methionine minus DMEM supplemented with 1× glutamine and 5% dialyzed FBS) and pulse-labeled for 30 minutes at 37° C. with 0.5 mCi ^35S-Methionine (New England Nuclear) per p100 plate. Cells were washed twice in PBS and lysed with RIPA buffer supplemented with protease inhibitors. […] In the case of the pulse-chase experiment, two identically treated plates were placed into chasing medium (DMEM supplemented with 10% Fetal Clone I, 1× Glutamine and 3 mg/mL methionine), placed back into the 37° C. incubator and harvested after 1.5 and 3 hours. Immunoprecipitated samples were subjected to SDS-PAGE, enhanced in sodium salicylate, dried and exposed for 2-3 days before the film was quantified by densitometry.
Quantitative RT-PCR was performed on total RNA harvested from 7H4 cells treated with medium only, DMSO or compound. […] To test whether the compounds alter HIF-2a stability, the inventors assessed protein half-life following the addition of cycloheximide in compound versus DMSO-only treated cells (see FIG. 10).

786-O cells = experiment: Cellular toxicity at IC50 concentrations; type: cell-based, human
[1] = system: putative IRE in HIF-1a 5′-UTR; experiment: Luciferase reporter with putative HIF-1a IRE; type: cell-based, human; conditions: 786-O derived reporter lines, normoxia or 1% oxygen
Protocol: The consensus sequence of the loop and the mandatory 5′ cytosine bulge are highlighted with light blue circles. […] Duplicate plates of 786-O derived lines expressing the putative wild-type or mutant HIF-1a IRE were cultured in the presence of compound as described for FIG. 1, with the exception that one set was placed at 1% oxygen for 24 hours following the first day's medium-change. Cells were treated with M, medium only; D, DMSO; or compounds, as indicated at the following concentrations: 40, 40 μM; 41, 30 μM; 76, 10 μM; 77, 5 μM. […] CWR22R or Hep3B cells were treated with compound and subjected to hypoxia as described above. B-Actin is shown for loading control. Cells were treated with M, medium only; D, DMSO; or compounds, as indicated at the following concentrations: 40, 40 μM; 41, 30 μM; 76, 20 μM; 77, 7.5 μM.
The lack of a functional IRE in HIF-1a represents a clear dichotomy between the two HIF isoforms that allows their translation to be controlled by a different regulatory system.

[2] = target: T1, IRP1 binding to HIF-2a IRE (Homo sapiens, UniProt P21399); experiment: Electrophoretic mobility shift assay, HIF-2a IRE probe; conditions: for binding of IRP1 to HIF-2a IRE probe: lysates of treated 786-O cells, EMSA
T1 sequence (P21399 1-889): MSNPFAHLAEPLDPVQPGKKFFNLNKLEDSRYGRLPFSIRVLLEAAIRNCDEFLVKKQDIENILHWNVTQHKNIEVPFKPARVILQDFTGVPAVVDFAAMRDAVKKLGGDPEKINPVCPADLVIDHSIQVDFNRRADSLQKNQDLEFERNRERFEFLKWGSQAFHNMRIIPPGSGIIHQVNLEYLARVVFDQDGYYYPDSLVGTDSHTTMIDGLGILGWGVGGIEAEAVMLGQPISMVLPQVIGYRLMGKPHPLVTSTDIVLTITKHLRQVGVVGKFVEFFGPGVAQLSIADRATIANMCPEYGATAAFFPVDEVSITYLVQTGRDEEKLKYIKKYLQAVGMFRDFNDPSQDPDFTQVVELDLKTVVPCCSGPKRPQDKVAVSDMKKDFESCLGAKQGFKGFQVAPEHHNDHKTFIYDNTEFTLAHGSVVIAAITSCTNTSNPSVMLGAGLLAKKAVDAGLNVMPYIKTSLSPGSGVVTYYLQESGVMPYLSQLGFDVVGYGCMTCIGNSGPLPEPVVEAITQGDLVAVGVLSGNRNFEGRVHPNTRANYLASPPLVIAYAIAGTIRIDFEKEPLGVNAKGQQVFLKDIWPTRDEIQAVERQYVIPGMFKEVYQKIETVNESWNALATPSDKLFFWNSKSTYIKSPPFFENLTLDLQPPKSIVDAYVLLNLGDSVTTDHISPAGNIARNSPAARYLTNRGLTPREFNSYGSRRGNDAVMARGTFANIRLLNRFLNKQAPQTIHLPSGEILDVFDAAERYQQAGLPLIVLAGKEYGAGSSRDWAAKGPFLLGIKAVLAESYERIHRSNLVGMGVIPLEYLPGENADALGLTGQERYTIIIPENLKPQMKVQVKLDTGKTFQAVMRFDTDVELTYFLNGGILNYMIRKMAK
Protocol: EMSAs were performed as described previously (Fillebeen et al., 2003). Briefly, 50 μg lysate from 786-O cells treated with medium only, DMSO, or compounds were incubated with 25,000 cpm wild-type or mutant radiolabeled HIF-2a IRE probe for 20 minutes at room temperature before loading onto non-denaturing acrylamide gels. Supershifts were performed identically, save that 0.2 μg control, IRP1 or IRP2 antibodies were also added. Total protein content was estimated by Bradford Assay (BioRad, 500-0006), and even loading for all experiments was confirmed by Western blot for B-Actin.
The inventors next tested the effect of hypoxia on the binding of IRP1 to the HIF-2a wild-type IRE. […] This is due to decreased mRNA binding, as western blots confirm that neither compound application nor hypoxia affects IRP1 protein expression. The involvement of IRP1 was further confirmed with super-shifting experiments with IRP1 antibody (FIG. 7C). No supershifted bands were observed using IRP2 antibody.
Inventors discovered that compound 76 increased the residual amount of IRP1 bound to the HIF-2a IRE in hypoxia, although not to the same extent as that observed in normoxic cells. […] Lastly, to further investigate the involvement of IRP2 in HIF-2a IRE, the inventors compared side by side IRP2 binding to HIF-2a and Ferritin-L IRE in 786-O cells, in conditions of normoxia or hypoxia and after treatment with compound 76 or DFO (FIG. 7E). While IRP2 binding was clearly detected on Ferritin IRE, the inventors were not able to detect measurable IRP2 binding on HIF-2a IRE.
To examine this latter possibility the inventors performed an electophoretic mobility shift assay (EMSA) using a radiolabeled wild type or mutant IRE probe to determine if IRP1 binding is increased (FIG. 18A). […] This shifted band can be supershifted with IRP1 but not IRP2 antibodies (data not shown). To further examine the ability of PGJ2 to enhance IRP1 activity under conditions of normoxia and hypoxia the inventors tested its effect at various concentrations of ambient oxygen, corresponding to physiologic or extreme conditions of tissue oxygenation.

SMILES | HIF-2a protein stability by 35S-methionine pulse chase (HIF-2a) | HIF-2a protein stability after cycloheximide (HIF-2a) | cellular toxicity (786-O cells) | effect on putative IRE in HIF-1a 5′-UTR [1] | binding of IRP1 to HIF-2a IRE probe [2] | binding of IRP1 to wild-type HIF-2a probe in hypoxia ([2]; 786-O cells, 24 hours hypoxia)
C/C(=C\c1ccccc1)C(=O)CCN(C)C.Cl [Compound 40, 5-(dimethylamino)-2-methyl-1-phenyl-1-penten-3-one hydrochloride] | have no affect on HIF-2a protein stability | no compound of 40, 41, 76 and 77 significantly affects HIF-2a stability | comparative lack of cellular toxicity at IC50 concentrations | do not affect putative IRE in HIF-1a 5′-UTR | enhance binding of IRP1 to the HIF-2a IRE | –
COc1ccc(O)c(/C=C/C(=O)c2c(O)cc(C)oc2=O)c1 [Compound 41, 4-hydroxy-3-[3-(2-hydroxy-5-meoxyphenyl)acryloyl]-6-methyl-2H-pyran-2-one] | have no affect on HIF-2a protein stability | no compound of 40, 41, 76 and 77 significantly affects HIF-2a stability | comparative lack of cellular toxicity at IC50 concentrations | do not affect putative IRE in HIF-1a 5′-UTR | enhance binding of IRP1 to the HIF-2a IRE | –
COC(=O)c1sccc1N/N=C(/C#N)S(C)(=O)=O [Compound 76, methyl 3-{2-[cyano(methylsulfonyl)methylene] hydrazino}thiophene-2-carboxylate] | have no affect on HIF-2a protein stability | no compound of 40, 41, 76 and 77 significantly affects HIF-2a stability | comparative lack of cellular toxicity at IC50 concentrations | do not affect putative IRE in HIF-1a 5′-UTR | enhance binding of IRP1 to the HIF-2a IRE | enhances binding of IRP1 to wild-type HIF-2a probe in hypoxia
CC1(C)CC(=O)C=C(Sc2ccc(C#N)cc2[N+](=O)[O-])S1 [Compound 77, 4-[(2,2-dimethyl-4-oxo-3,4-dihydro-2H-thiin-6-yl)thio]-3-nitrobenzonitrile] | have no affect on HIF-2a protein stability | no compound of 40, 41, 76 and 77 significantly affects HIF-2a stability | comparative lack of cellular toxicity at IC50 concentrations | do not affect putative IRE in HIF-1a 5′-UTR | enhance binding of IRP1 to the HIF-2a IRE | –
CCCCC/C=C/C=C1/C(=O)C=C[C@@H]1C/C=C\CCCC(=O)O [PGJ2, 15-deoxy-Δ^12,14-prostaglandin J2] | – | no indication that PGJ2 affects HIF2a protein half-life | – | – | increased the specific IRE binding activity of cell lysates under conditions of both normoxia and hypoxia | –

Source: US10881656B2, “HIF inhibitors and use thereof” (The General Hospital Corporation, priority 2008, dated 2021)
